Read-outs that look alike come from different tables or passages of the source.

What all share (type): biochemical
The target of one assay is SET1b Complex (Homo sapiens, UniProt Q9UPS6). Briefly: Methyltransferase inhibition panel: SET1b Complex. The procedure:
(§1) The ability of ETP69 to inhibit methyltransferases was tested.

The next assay addresses PRMT3 (Homo sapiens, UniProt O60678). Nature of the assay: Methyltransferase inhibition panel: PRMT3. The procedure:
as §1

A further assay deals with T1, GLP (Homo sapiens, UniProt Q9H9B1).
T1 sequence (Q9H9B1 1-1298): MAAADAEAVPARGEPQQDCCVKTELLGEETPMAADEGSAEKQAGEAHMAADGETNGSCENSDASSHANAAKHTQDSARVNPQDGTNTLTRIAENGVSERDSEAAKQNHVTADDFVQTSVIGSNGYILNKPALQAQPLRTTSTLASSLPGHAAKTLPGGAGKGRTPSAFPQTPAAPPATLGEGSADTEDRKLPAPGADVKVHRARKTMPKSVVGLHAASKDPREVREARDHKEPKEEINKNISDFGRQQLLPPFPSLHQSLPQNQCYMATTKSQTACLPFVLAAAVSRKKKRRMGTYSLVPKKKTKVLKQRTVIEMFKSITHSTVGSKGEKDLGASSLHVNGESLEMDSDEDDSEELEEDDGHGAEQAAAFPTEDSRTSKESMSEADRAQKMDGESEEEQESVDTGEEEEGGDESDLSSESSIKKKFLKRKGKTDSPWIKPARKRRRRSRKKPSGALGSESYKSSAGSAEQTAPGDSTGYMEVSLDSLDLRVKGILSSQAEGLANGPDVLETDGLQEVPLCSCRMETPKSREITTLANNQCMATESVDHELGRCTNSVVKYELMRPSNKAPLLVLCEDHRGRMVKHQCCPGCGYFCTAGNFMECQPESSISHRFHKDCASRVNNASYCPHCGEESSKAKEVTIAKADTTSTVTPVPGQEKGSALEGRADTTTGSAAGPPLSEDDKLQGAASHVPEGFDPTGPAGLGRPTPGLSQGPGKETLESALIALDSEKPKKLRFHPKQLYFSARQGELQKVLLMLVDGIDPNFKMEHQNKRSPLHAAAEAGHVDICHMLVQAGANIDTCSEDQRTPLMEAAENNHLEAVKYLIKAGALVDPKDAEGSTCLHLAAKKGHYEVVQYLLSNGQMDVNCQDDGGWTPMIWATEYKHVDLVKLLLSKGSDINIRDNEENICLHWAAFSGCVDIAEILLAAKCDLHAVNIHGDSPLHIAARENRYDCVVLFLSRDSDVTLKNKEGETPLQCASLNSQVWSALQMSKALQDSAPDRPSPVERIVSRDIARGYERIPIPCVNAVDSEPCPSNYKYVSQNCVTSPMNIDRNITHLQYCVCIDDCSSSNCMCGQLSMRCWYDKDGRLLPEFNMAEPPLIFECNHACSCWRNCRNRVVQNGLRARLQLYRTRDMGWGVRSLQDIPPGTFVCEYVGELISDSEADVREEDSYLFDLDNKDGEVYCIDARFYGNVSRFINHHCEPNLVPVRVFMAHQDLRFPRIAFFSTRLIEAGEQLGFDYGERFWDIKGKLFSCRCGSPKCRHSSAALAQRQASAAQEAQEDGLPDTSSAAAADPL
Briefly: Methyltransferase inhibition panel: GLP. As for the experimental part: as §1

A further assay concerns the target T2, NSD2 (E1099K) (Homo sapiens, UniProt O96028, E1099K).
T2 sequence (O96028 1-1365 E1099K): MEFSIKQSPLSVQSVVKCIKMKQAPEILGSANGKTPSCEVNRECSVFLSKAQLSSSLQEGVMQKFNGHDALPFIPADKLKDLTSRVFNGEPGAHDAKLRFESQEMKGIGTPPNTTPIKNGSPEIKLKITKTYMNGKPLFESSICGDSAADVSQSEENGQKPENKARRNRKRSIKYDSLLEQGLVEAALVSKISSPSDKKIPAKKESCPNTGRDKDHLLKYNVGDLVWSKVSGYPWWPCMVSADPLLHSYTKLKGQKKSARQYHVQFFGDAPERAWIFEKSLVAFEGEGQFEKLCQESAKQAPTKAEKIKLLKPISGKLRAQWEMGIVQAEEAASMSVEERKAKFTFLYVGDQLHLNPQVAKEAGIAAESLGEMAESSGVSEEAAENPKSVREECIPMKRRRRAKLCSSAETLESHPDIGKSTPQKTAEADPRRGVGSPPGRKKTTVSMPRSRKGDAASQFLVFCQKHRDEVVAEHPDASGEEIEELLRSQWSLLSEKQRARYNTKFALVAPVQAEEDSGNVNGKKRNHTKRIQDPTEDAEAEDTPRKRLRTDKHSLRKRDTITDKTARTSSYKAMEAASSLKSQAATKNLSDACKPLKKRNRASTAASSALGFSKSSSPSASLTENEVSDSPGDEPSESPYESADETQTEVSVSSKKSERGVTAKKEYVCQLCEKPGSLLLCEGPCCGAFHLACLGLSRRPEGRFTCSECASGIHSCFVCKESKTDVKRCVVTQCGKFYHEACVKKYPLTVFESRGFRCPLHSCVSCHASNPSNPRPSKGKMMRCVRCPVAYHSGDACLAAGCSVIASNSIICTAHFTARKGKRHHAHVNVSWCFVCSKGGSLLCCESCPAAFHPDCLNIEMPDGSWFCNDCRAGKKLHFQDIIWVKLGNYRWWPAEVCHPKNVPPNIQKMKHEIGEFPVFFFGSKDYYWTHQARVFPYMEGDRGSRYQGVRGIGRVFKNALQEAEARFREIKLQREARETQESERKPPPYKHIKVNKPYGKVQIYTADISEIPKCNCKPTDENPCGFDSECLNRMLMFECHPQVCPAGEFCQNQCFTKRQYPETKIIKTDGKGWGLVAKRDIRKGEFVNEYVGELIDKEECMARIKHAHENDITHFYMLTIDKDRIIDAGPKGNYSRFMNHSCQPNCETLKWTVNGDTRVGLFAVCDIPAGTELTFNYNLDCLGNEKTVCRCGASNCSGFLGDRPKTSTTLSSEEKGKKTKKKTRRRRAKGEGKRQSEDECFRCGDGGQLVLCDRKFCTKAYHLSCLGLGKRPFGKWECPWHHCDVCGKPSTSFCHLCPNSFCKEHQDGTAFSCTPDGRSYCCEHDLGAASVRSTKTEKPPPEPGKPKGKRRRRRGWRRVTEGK
Briefly: Methyltransferase inhibition panel: NSD2 (E1099K). The procedure: as §1

Setting [1] is: read-out: Enzyme % Activity (relative to DMSO controls) Data 1.
The mark [2] stands for this setting: read-out: Enzyme % Activity (relative to DMSO controls) Data 2.

Sequence of SET1b Complex (Q15291 whole entry): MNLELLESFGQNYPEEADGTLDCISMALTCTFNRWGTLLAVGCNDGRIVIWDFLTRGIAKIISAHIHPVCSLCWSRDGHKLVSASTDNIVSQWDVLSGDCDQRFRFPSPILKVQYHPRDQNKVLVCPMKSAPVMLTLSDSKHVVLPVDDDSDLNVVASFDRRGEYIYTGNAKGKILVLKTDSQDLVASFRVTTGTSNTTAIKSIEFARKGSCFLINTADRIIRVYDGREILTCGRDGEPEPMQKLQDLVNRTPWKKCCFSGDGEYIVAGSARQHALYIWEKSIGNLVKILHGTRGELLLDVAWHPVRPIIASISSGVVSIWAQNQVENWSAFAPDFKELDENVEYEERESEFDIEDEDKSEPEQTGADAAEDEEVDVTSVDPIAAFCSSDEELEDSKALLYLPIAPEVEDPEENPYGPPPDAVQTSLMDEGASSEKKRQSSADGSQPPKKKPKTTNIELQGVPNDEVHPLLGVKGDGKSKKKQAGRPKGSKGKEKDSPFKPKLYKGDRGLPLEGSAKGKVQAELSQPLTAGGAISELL
Sequence of SET1b Complex (Q9UBL3 whole entry, further chain): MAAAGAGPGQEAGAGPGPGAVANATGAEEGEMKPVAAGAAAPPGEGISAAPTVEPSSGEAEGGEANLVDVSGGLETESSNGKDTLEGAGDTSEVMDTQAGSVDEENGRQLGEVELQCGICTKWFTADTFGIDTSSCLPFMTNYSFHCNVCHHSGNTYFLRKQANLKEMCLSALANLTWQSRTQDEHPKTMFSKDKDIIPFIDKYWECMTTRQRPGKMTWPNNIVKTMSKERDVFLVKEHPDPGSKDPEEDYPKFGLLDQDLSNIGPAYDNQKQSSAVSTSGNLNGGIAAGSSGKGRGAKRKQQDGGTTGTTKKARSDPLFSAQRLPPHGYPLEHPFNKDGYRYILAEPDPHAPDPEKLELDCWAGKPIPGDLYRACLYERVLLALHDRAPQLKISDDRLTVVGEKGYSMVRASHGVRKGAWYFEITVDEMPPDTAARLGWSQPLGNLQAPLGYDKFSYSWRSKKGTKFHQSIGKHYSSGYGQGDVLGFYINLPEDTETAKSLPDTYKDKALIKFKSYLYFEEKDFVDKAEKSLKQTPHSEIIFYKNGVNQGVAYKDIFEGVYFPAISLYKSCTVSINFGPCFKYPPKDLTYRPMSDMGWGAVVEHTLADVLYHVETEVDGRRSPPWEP
Sequence of SET1b Complex (Q9UPS6 whole entry): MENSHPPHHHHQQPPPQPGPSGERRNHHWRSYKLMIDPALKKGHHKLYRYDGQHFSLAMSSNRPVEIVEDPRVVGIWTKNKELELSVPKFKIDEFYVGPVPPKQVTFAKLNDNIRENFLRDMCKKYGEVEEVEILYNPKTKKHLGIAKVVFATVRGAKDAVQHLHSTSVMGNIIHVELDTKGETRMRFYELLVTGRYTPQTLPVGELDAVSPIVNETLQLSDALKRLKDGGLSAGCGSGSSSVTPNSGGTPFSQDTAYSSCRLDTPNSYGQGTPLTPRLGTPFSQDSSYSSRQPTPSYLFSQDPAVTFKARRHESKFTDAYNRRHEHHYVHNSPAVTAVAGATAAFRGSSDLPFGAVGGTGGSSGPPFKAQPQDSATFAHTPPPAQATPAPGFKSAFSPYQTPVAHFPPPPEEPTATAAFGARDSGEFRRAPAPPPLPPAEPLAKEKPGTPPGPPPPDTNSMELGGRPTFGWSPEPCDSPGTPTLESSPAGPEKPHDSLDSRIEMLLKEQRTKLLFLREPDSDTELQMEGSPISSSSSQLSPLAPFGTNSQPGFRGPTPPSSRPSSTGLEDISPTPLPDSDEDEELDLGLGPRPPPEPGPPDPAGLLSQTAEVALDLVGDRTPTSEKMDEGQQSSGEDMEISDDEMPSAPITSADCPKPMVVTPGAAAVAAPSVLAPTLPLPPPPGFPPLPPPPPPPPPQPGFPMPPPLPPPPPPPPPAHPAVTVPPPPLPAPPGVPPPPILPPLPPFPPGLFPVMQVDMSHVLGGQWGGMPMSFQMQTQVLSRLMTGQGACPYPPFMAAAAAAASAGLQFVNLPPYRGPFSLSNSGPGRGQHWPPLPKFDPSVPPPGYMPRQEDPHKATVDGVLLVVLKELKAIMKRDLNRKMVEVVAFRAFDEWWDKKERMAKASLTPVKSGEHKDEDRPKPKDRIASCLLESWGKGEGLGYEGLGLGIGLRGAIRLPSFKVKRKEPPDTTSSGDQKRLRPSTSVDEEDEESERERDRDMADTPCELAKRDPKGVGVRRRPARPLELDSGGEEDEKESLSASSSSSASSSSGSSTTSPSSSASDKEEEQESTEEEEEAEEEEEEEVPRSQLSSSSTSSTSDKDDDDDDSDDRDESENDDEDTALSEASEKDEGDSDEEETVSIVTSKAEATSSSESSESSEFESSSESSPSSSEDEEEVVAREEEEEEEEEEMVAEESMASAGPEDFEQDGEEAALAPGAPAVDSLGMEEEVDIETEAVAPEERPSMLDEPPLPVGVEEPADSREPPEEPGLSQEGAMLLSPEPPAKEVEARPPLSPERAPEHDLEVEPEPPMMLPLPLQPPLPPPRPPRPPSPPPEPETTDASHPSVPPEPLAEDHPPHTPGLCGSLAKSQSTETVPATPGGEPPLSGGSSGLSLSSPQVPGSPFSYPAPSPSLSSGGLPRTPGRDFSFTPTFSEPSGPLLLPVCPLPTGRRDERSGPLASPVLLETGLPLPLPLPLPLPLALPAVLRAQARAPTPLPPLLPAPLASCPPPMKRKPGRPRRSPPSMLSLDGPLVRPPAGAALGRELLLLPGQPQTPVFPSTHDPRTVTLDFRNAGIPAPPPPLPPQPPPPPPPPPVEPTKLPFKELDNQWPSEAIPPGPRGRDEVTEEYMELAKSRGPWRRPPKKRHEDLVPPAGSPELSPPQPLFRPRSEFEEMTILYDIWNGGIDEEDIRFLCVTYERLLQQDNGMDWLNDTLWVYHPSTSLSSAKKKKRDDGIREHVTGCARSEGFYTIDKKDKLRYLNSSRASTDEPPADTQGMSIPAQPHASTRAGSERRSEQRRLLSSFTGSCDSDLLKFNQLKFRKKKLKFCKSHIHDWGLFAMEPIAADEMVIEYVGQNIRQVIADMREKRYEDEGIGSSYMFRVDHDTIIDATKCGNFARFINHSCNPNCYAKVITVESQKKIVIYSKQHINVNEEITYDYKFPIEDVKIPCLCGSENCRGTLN
Sequence of SET1b Complex (Q9C005 whole entry, further chain): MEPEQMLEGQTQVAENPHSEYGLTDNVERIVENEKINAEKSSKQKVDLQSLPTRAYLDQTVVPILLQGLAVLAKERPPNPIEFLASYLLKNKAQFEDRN
Sequence of PRMT3 (O60678 whole entry): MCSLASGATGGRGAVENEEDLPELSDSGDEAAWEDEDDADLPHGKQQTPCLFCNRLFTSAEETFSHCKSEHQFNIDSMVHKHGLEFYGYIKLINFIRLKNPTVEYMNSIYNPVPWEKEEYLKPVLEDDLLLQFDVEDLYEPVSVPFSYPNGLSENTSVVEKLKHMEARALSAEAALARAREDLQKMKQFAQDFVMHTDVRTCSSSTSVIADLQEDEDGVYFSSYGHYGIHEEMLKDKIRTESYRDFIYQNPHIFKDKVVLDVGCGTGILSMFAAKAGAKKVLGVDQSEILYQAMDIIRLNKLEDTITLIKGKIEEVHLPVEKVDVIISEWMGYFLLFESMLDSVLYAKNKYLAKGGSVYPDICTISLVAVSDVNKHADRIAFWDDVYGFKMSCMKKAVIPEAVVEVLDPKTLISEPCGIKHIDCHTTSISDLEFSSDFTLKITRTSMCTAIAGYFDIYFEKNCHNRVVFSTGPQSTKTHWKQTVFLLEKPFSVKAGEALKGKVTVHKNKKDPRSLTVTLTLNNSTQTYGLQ

With `CN1C(=O)[C@@]23C[C@](C)(C#N)[C@H](c4ccc5c(c4)OCO5)N2C(=O)[C@]1(C)SS3` (racemic) [ETP69, Rac-(3S,6S,7S,8aS)-6-(benzo[d][1,3]dioxol-5-yl)-2,3,7-trimethyl-1,4-dioxohexahydro-6H-3,8a-epidithiopyrrolo[1,2-a]pyrazine-7-carbonitrile], the remaining activity at 20 µM at SET1b Complex (setting [1]) turned out to be 0.6%; on SET1b Complex (setting [2]) it was 0.47%; on PRMT3 (setting [1]) it was 94%; at PRMT3 (setting [2]), 95%; at NSD2 (E1099K) (setting [1]), 32.3%; at NSD2 (E1099K) (setting [2]), 32.7%. Moreover, the “inhibition relative to DMSO controls” value against SET1b Complex (summary of Table 1) and at NSD2 (E1099K) (summary of Table 1) was “at least 7500” each time. The remaining activity at 2.5 µM is 91.4% at GLP (setting [1]) and 94.2% at GLP (setting [2]).

The record behind these values is patent US20260207585A1, “METHODS AND COMPOSITIONS FOR THE TREATMENT OF PARKINSON'S DISEASE, HUNTINGTON'S DISEASE, AMYOTROPHIC LATERAL SCLEROSIS, AND LEARNING DISORDERS” (Cedars-Sinai Medical Center, priority 2022, published 2026).
